Laboratory results as given in US10442759B2, “1-sulfonamido-4-aryloxy compounds, and preparation method and medicinal application thereof” (priority 2016, dated 2019).

How the values were obtained:
[1] = target: Keap1-Nrf2 protein-protein interaction (Keap1 Kelch domain protein, FITC-9mer Nrf2 polypeptide probe) (Homo sapiens (Human), UniProt Q14145); assay: Fluorescence polarization-based Keap1-Nrf2 protein-protein interaction inhibition experiment (FP experiment); format: binding; settings: for IC50: FP experiment, Keap1 Kelch domain, FITC-9mer Nrf2 probe
Keap1-Nrf2 protein-protein interaction (Keap1 Kelch domain protein, FITC-9mer Nrf2 polypeptide probe), sequence (Q14145 321-609): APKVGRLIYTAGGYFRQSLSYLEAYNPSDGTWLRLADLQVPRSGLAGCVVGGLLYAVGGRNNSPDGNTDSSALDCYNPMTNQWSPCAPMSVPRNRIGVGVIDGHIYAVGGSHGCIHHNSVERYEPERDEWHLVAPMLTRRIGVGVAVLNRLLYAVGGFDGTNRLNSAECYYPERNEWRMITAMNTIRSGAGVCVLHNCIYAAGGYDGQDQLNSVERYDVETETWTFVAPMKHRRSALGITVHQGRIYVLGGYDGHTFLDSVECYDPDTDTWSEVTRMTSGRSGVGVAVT
Experimental: Fluorescence Polarization-Based Keap1-Nrf2 Protein-Protein Interaction Inhibition Experiment (FP Experiment)
The instrument used in the FP experiment was the SpectraMax Multi-Mode Microplate Reader (Molecular Devices), and the excitation and emission wavelengths of the instrument were selected based on the corresponding fluorophore.
Before the test, the system was mixed well and incubated for 30 minutes at room temperature. […] In this study, the fluorescence intensities in horizontal and vertical directions (F∥ and F^⊥) were used to calculate the millipolarization value (mP), so as to reflect the changes of the polarized light.
where Pmax, Pmin, and Pobs represent the polarization value in the well containing Keap1 and the fluorescence probe, the polarization value in the well containing the fluorescence probe, and the polarization value of the well containing the inhibitor, respectively. The IC50 of the compounds was calculated from curve of the inhibition rate against the inhibitor concentration.

[2] = test system: ARE (HepG2-ARE-C8 cells); assay: ARE luciferase reporter assay; format: cell-based; settings: for Luciferase reporter activity (fold of induction): HepG2-ARE-C8 cells, 12 hrs
Experimental: ARE Luciferase Reporter Assay
100 μL was added to a 96-well microtiter plate and incubated overnight.
(2) 2 times of the desired concentration of the test compound was formulated in a culture medium, and 100 μL was added respectively to the corresponding wells. tBHQ was used as a positive control and DMSO was used as a negative control. The 96-well microtiter plate added with the compound was incubated for 12 hrs at a constant temperature of 37° C., 5% CO2, and saturated humidity.
(3) The 5× lysis buffer in the Luciferase Assay Kit was formulated into a 1× lysis buffer for future use.
(4) The 96-well microtiter plate was removed, the medium was aspirated from the wells, the cells were washed with 1×PBS buffer, and the PBS buffer was aspirated off after the wash. […] After the lysis, the lysate was stood for 3-5 min, and 20 μL of the lysate supernatant was aspirated into a corresponding 96-well white plate.
(5) The 96-well white plate was positioned in the Thermo Scientific Luminoskan Ascent Chemiluminescence Micropore Reader. 100 μL of a luciferase assay reagent (obtained by uniformly mixing 1 bottle of luciferase assay substrate in the luciferase assay kit and 1 bottle of luciferase detection buffer) was added to each well before the test, and the plate was read within 1 min after the test reagent was added.

Compound | IC50 [1] [nM] | Luciferase reporter activity (fold of induction) ([2]; 0.1 μmol/L) | Luciferase reporter activity (fold of induction) ([2]; 1 μmol/L) | Luciferase reporter activity (fold of induction) ([2]; 10 μmol/L) | FP activity compared with the positive control Nrf2 9mer polypeptide [1] | fold of induction compared with the positive control tBHQ ([2]; 10 μM)
2-(4-(2,4,6-trimethyl-N-(2-(hydroxylamino)-2-oxoethylbenzenesulfonamido) naphthalen-1-oxy)-benzeneacetic acid [Compound I-13] | 980 | 1.07 fold of induction | 1.16 fold of induction | 1.21 fold of induction | – | –
2-(4-(2,4,6-trimethylbenzenesulfonamido)naphthalen-1-oxy)benzeneacetic acid [Compound I-11] | 2430 | 1.02 fold of induction | 1.34 fold of induction | 1.14 fold of induction | – | –
2-(4-(2,4,6-trimethylbenzenesulfonamido)naphthalen-1-yl)oxy)-2-benzeneacetic acid [Compound I-2] | 1320 | 1.21 fold of induction | 1.10 fold of induction | 1.05 fold of induction | – | –
3-(4-((N-carboxymethyl)-2,4,6-trimethylbenzenesulfonamido)naphthalen-1-yloxy)-(4-methoxyphenyl)propionic acid [Compound I-20] | 830 | 1.02 fold of induction | 1.13 fold of induction | 1.28 fold of induction | – | –
COc1ccc(S(=O)(=O)N(CC(=O)O)c2ccc(Oc3ccccc3CC(=O)O)c3ccccc23)cc1 [Compound I-1] | 2280 | 0.98 fold of induction | 1.10 fold of induction | 1.07 fold of induction | – | –
Cc1cc(C)c(S(=O)(=O)N(CC(=O)O)c2ccc(Oc3ccccc3CC(=O)O)c3ccccc23)c(C)c1 [Compound I-3] | 580 | 0.95 fold of induction | 1.03 fold of induction | 1.31 fold of induction | – | –
CC(C)(C)c1ccc(S(=O)(=O)N(CC(=O)O)c2ccc(OC(C(=O)O)c3ccccc3)c3ccccc23)cc1 (stereo not shown) [Compound I-4] | 980 | 1.04 fold of induction | 1.12 fold of induction | 1.13 fold of induction | – | –
COc1ccc(S(=O)(=O)N(CC(=O)O)c2ccc(Oc3ccccc3CC(=O)O)c3ccccc23)cc1OC [Compound I-5] | 2300 | 0.92 fold of induction | 1.05 fold of induction | 1.10 fold of induction | – | –
COc1cc(OC)c(S(=O)(=O)N(CC(=O)O)c2ccc(OC(C(=O)O)c3ccccc3)c3ccccc23)c(OC)c1 (stereo not shown) [Compound I-6] | 640 | 1.01 fold of induction | 1.26 fold of induction | 1.09 fold of induction | – | –
CC(=O)Nc1ccc(S(=O)(=O)N(CC(=O)O)c2ccc(Oc3ccccc3CC(=O)O)c3ccccc23)cc1 [Compound I-7] | 5230 | 0.97 fold of induction | 1.01 fold of induction | 1.03 fold of induction | – | –
O=C(O)CN(c1ccc(OC(C(=O)O)c2ccccc2)c2ccccc12)S(=O)(=O)c1ccc([N+](=O)[O-])cc1 (stereo not shown) [Compound I-8, 2-(4-(N-(carboxymethyl)-4-nitrobenzenesulfonamido))naphthalen-1-oxy) benzeneacetate] | 4790 | 1.05 fold of induction | 1.23 fold of induction | 1.14 fold of induction | – | –
O=C(O)CN(c1ccc(OC(C(=O)O)c2ccccc2)c2ccccc12)S(=O)(=O)c1ccc(F)cc1 (stereo not shown) [Compound I-9] | 5160 | 1.02 fold of induction | 1.13 fold of induction | 1.08 fold of induction | – | –
O=C(O)Cc1ccccc1Oc1ccc(N(CC(=O)O)S(=O)(=O)c2ccc(C(F)(F)F)cc2)c2ccccc12 [Compound I-10] | 6660 | 0.92 fold of induction | 0.95 fold of induction | 1.10 fold of induction | – | –
Cc1cc(C)c(S(=O)(=O)N(Cc2nn[nH]n2)c2ccc(Oc3ccccc3CC(=O)O)c3ccccc23)c(C)c1 [Compound I-12, 2-(4-((N-(2H-tetrazol-5-yl)methyl)-2,4,6-trimethylbenzenesulfonamido)naphthalen-1-oxy)benzeneacetic acid] | 830 | 1.05 fold of induction | 1.19 fold of induction | 1.36 fold of induction | – | –
CCOc1ccc(C(Oc2ccc(N(CC(=O)O)S(=O)(=O)c3c(C)cc(C)cc3C)c3ccccc23)C(=O)O)cc1 (stereo not shown) [Compound I-15] | 84 | 1.33 fold of induction | 2.05 fold of induction | 3.92 fold of induction | better than the positive control | significantly higher than that of the positive control tBHQ
CC(=O)Nc1ccc(C(Oc2ccc(N(CC(=O)O)S(=O)(=O)c3c(C)cc(C)cc3C)c3ccccc23)C(=O)O)cc1 (stereo not shown) [Compound I-16] | 90 | 1.21 fold of induction | 1.98 fold of induction | 3.23 fold of induction | better than the positive control | –
COc1cc(OC)c(S(=O)(=O)N(CC(=O)O)c2ccc(OC(C(=O)O)c3ccc(OC(C)C)cc3)c3ccccc23)c(OC)c1 (stereo not shown) [Compound I-17] | 320 | 1.39 fold of induction | 1.39 fold of induction | 2.07 fold of induction | – | –
COc1cc(OC)c(S(=O)(=O)N(CC(=O)O)c2ccc(OC(C(=O)O)c3ccc(F)cc3)c3ccccc23)c(OC)c1 (stereo not shown) [Compound I-18] | 310 | 1.03 fold of induction | 1.42 fold of induction | 1.57 fold of induction | – | –
COc1ccc(C(Oc2ccc(N(Cc3nn[nH]n3)S(=O)(=O)c3c(C)cc(C)cc3C)c3ccccc23)C(=O)O)cc1 (stereo not shown) [Compound I-19, 2-(4-((N-(2H-tetrazol-5-yl)methyl)-2,4,6-trimethylbenzenesulfonamido)naphthalen-1-oxy)-(4-methoxyphenyl)acetic acid] | 140 | 0.97 fold of induction | 1.43 fold of induction | 2.58 fold of induction | – | –
CC(C)(C)c1cc(O)ccc1O [tBHQ, t-butylhydroquinone, reference compound] | – | 1.46 fold of induction | 1.38 fold of induction | 3.61 fold of induction | – | –
